US7456203B2, “Muscarinic receptor antagonists” (Theravance, Inc., priority 1999, dated 2008)

Experiments:
[1] = molecular target: T1, M2 receptor in bladder (Rattus norvegicus, UniProt P10980); assay: Rat bladder in vitro binding assay, receptor block by selective ligand; details: blocking ligand 2 μM; bladder membranes
T1 construct: Membranes from rat bladder were prepared; from tissue; host or cells: rat bladder membranes
T1 sequence (P10980 1-466): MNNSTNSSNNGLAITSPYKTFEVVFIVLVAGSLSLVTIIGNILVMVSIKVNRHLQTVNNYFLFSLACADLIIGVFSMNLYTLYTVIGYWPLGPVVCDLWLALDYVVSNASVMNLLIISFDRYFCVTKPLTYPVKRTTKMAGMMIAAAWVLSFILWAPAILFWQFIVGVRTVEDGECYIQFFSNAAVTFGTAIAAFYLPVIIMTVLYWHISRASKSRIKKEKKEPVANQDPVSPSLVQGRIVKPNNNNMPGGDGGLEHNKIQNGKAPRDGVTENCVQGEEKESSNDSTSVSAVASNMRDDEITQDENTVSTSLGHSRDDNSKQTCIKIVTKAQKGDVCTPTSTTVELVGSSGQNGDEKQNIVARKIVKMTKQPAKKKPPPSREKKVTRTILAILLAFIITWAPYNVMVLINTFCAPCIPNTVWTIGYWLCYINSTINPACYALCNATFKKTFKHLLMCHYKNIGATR
Description: (§1) Bladder was comprised of both M2 and M3 muscannic receptors. The ratio was typically 4:1 M2:M3. […] The following example illustrates the procedure for M3 bladder binding.
(§2) Membranes from rat bladder were prepared in a similar fashion to that used to isolate heart membrane above. […] To 50 μl of compound dilution in a 96-well assay plate was added an appropriate amount of rat heart membrane (usually 25 μl of membrane prep in 75 μl of 20 mM HEPES, 100 mM NaCl/10 mM MgCl2 at pH 7.5). The amount of membrane added depended in general on the results of signal optimization, and ranged from 12.5-25. Last, 50 μl of 2.12 nM 3H-N-methylscopolamine radioligand in compound dilution buffer was added. The total volume in each well was 200 μl. The final concentration of methoctramine was 2 μM. The filter plate was pre-blocked using 0.3% PEI for at least 15 mins., and then washed twice with 200 μl PBS. The assay plate was incubated for 1 hour at room temperature with gentle shaking. The contents of the assay plate was then transferred to the filter plate, and washed three times using 200 μl PBS. About 40 μl of scint was added to each well, the plate was allowed to sit at room temperature for 18 h, and then counted using a Packard Topcount NXT.

[2] = molecular target: T2, M3 receptor in bladder (Rattus norvegicus, UniProt P08483); assay: as above; details: bladder membranes
T2 construct: Membranes from rat bladder were prepared; from tissue; host or cells: rat bladder membranes
Description: as §1
as §2, with “The final concentration of methoctramine was 2 μM.” left out

[3] = system: oxotremorine response (intraluminal pressure of the bladder); assay: In vivo bladder assay; parameters: species or system rat; details: 0.005-0.01 mg/kg, IV; after oxotremorine 0.3 mg/kg SC; anesthetized male Sprague-Dawley rats
Description: Male Sprague-Dawley rats weighing 250-300 g were anesthetized with urethane (1.3 g/kg, i.p.), inactin (25 mg/kg, i.p.), and xylazine (4 mg, i.p.). The jugular (or femoral) vein was isolated and ligated and a small incision was made in the vein distal to the ligation. […]
For data analysis, the oxotremorine response (zero inhibition) was determined by measuring the mean pressure 1 minute prior to the antagonist injection. Then, to assess antagonist inhibition, mean pressure was measured beginning at 1 minute and ending 2 minutes after antagonist administration. […] The percent inhibition by the antagonist can be determined by the ratio of the decrease from the zero to 100% values. • The formula is: oxotremorine mean−treatment mean*100 oxotremorine mean−atropine mean.

T2 sequence (P08483 whole entry): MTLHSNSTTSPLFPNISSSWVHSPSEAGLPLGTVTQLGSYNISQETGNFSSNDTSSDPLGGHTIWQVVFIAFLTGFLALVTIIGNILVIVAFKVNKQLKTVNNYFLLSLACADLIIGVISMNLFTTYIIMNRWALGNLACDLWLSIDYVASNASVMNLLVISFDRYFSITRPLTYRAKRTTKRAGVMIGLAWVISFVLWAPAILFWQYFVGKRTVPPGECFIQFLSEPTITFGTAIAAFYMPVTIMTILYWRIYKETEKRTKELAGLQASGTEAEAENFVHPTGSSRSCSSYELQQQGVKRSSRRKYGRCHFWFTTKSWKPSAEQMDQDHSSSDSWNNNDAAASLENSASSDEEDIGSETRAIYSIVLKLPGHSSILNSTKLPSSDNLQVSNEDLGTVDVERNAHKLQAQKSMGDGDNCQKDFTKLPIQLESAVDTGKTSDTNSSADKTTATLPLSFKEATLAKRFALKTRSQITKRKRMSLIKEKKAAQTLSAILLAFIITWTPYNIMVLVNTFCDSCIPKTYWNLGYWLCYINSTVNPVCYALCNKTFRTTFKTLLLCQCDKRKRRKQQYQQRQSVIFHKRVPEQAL

SMILES | block of the M2 receptor in bladder [1] | block of M3 receptor ([2]; 2 μM Darifenacin) | decrease in intraluminal pressure [3] | block of the M3 receptor in bladder ([2]; final concentration of methoctramine 2 μM)
NC(=O)C(c1ccccc1)(c1ccccc1)[C@@H]1CCN(CCc2ccc3c(c2)CCO3)C1 [Darifenacin] | > 99% | minimal | – | –
CN1[C@@H]2CC[C@H]1C[C@@H](OC(=O)C(CO)c1ccccc1)C2 (some centres unmarked) [atropine] | – | – | 30-70% | –
COc1ccccc1CNCCCCCCNCCCCCCCCNCCCCCCNCc1ccccc1OC [methoctramine, Methoctramine] | > 99% | – | – | less than 40%
